Structures can show the parent of a compound that is named as a salt.
What was measured:
[1] = tested on: normal eyes of rabbits (intraocular pressure); experiment: Antiglaucoma activity: intraocular pressure after instillation into normal eyes of rabbits; assay type: in vivo, male, albino New Zealand rabbits
Procedure: In order to evaluate antiglaucoma activity, the test compounds were dissolved in the vehicle, a 0.2% aqueous solution of hydroxymethylcellulose at various concentrations such as 0.03%, 0.1%, or 0.3%. Comparisons were made to the reference standard, pilocarpine hydrochloride which was dissolved in the vehicle at a concentration of 0.5%. Control treatment was a volume dose of vehicle.
Male, albino New Zealand rabbits (Scientific Animal Farms and/or Kuiper's Rabbit Ranch) weighing 2.06-2.5 kg were used in the study. Intraocular pressures were obtained in the normal eyes of the animals using a Bausch and Lomb Applamatic Tonometer. Three separate sessions provided the baseline pressures for each eye. The test compound or vehicle (0.1 mL) was instilled into the eyes of 6 different rabbits according to a randomized dosing schedule. Intraocular pressures were taken at 5, 15, 30, 45, 60, 90 and 120 minutes after instillation of the test compounds.
Statistical treatment was by one-way analysis of variance. Results are shown (Table 1) for a representative sample of the compounds claimed.

alpha-1-receptor = target: T1, alpha-1-receptor (Rattus norvegicus, UniProt P15823); experiment: Radioligand binding, alpha-1 adrenoceptor ([3H]-pyrazosin, rat liver homogenates)
T1 sequence (P15823 1-515): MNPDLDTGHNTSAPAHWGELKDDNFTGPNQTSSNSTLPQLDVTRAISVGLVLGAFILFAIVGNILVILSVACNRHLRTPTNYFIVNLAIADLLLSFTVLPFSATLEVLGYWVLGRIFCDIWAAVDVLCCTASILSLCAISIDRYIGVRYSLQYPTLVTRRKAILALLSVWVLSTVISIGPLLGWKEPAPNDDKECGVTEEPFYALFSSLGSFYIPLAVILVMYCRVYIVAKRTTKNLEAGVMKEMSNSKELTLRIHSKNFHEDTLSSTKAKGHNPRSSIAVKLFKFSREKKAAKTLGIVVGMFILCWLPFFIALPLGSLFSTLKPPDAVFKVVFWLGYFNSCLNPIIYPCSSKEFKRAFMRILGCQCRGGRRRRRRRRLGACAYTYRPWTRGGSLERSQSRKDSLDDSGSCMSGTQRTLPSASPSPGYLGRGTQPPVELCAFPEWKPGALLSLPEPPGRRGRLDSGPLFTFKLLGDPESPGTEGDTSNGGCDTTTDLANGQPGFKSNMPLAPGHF

alpha-2-receptor = experiment: Radioligand binding, alpha-2 adrenoceptor ([3H]-rauwolscine, rat cerebral cortices)
[2] = 5 minutes after administration, 0.3% solution, 0.1 mL instilled
[3] = 15 minutes after administration, 0.3% solution, 0.1 mL instilled
[4] = 90 minutes after administration, 0.3% solution, 0.1 mL instilled
[5] = 120 minutes after administration, 0.3% solution, 0.1 mL instilled

SMILES | Ki (alpha-1-receptor) [nM] | Ki (alpha-2-receptor) [nM] | Percent Change in IOP vs Baseline [1, 2] [%] | Percent Change in IOP vs Baseline [1, 3] [%] | Percent Change in IOP vs Baseline [1, 4] [%] | Percent Change in IOP vs Baseline [1, 5] | further results
CN(C)C(=O)Oc1ccc2c(c1)CCN(CCCc1cccs1)C2.CS(=O)(=O)O [Example 18, 1,2,3,4-Tetrahydro-6-((dimethylamino)carbonyl)oxy-2-N-(3-(2-thienyl)propyl)isoquinoline methane sulfonate] |  |  | -38 | -26 | -48 | -12% | 
COc1ccc2c(c1)CCN(CCCc1cccs1)C2.Cl [Example 2, 1,2,3,4-Tetrahydro-6-methoxy-N-3-(2-thienyl)propylisoquinoline hydrochloride] | 150 | 4.3 | -50 | -41 | -13 | +8% | 
CC[C@@H]1C(=O)OC[C@@H]1Cc1cncn1C [Pilocarpine, pilocarpine hydrochloride, reference compound] |  |  |  |  |  |  | Percent Change in IOP vs Baseline ([1]; 15 minutes after administration, 0.5% solution (reference standard)): -22%; Percent Change in IOP vs Baseline ([1]; 90 minutes after administration, 0.5% solution (reference standard)): -20%; Percent Change in IOP vs Baseline ([1]; 120 minutes after administration, 0.5% solution (reference standard)): -33%
CC(C)(C)C(=O)Oc1ccc2c(c1)CCN(CCCc1cccs1)C2.CS(=O)(=O)O [Example 16, 1,2,3,4-Tetrahydro-6-trimethylacetoxy-N-3-(2-thienyl)propylisoquinoline methane sulfonate] |  |  | -11 | -12 | -36 | -4% | 

The next lines start with results.

Ki (alpha-1-receptor) [nM] | Ki (alpha-2-receptor) [nM] | SMILES | Percent Change in IOP vs Baseline [1, 2] [%] | Percent Change in IOP vs Baseline [1, 3] [%] | Percent Change in IOP vs Baseline [1, 4] [%] | Percent Change in IOP vs Baseline [1, 5] | further results
154 | 2.2 | COc1ccc2c(c1)CCN(CCCc1ccco1)C2 [Example 6, 1,2,3,4-Tetrahydro-6-methoxy-N-3-(2-furyl)propylisoquinoline hydrochloride] |  |  |  |  | 
114 | 5.6 | Cc1ccc2c(c1)CCN(CCCc1ccccc1)C2 [Example 13, 1,2,3,4-Tetrahydro-6-methyl-N-(3-(phenylpropylisoquinoline Hydrochloride] |  |  |  |  | 
217 | 5.9 | COc1ccc2c(c1)CCN(CCCc1ccccc1)C2 [Example 7, 1,2,3,4-Tetrahydro-6-methoxy-N-(3-phenylpropyl)isoquinoline hydrochloride] |  |  |  |  | 
206 | 4.6 | COc1ccc2c(c1)CCN(CCCc1cccc(F)c1)C2 [Example 5, 1,2,3,4-Tetrahydro-6-methoxy-N-3-(m-fluorophenyl)propyl isoquinoline hydrochloride] |  |  |  |  | 
174 | 10.7 | COc1cccc(CCCN2CCc3cc(OC)ccc3C2)c1 [Example 8, 1,2,3,4-Tetrahydro-6-methoxy-N-3-(3-methoxyphenyl)propyl isoquinoline hydrochloride] |  |  |  |  | 

— patent US4963563A, “6-substituted-1,2,3,4-tetrahydroisoquinolines” (Abbott Laboratories, priority 1989, dated 1990)
